Laboratory results reported in paper PMC12881674, “Activation of TRPV3 channels in bladder cancer cells stimulates ATP release” (Molecular Pharmacology, 2025).

Tested on: parental HEK cells
Assay: Ca2+ assays (fluo-4 and fura-2) in parental HEK cells lacking TRPV3
Assay type: cell-based, human
Conditions: concentrations up to 50 μM
Description: All fluorometric Ca^2+ assays were performed in HBS buffer at room temperature. The compounds of the Enamine Diversity Set were diluted in a buffer composed of 150 mM NaCl and 20 mM HEPES and added to the cells at a final concentration of 25 μM (0.5% DMSO). For the primary compound screening and the generation of concentration-response analyses, a robotic liquid handling station (Freedom Evo 150; Tecan) with a built-in custom-made fluorescence plate imager was used. HEKTRPV3 and bladder cancer cell lines were harvested and loaded with 4 μM fluo-4/AM (Invitrogen; Fisher Scientific) in cell culture medium for 30 minutes at 37 °C. […] Fluorescence was excited using a 470-nm light-emitting diode, and emitted light was imaged through a 515-nm–long pass filter with a cooled Zyla 5.5 camera (Andor). Fluorescence was recorded and processed under the control of the μ-Manager 2.0 gamma software (https://micro-manager.org.[28]). After recording baseline fluorescence, compounds were dispensed into the wells via the liquid handling device. […] For further analysis, fluorescence signals were calculated for each well, corrected for background intensities and normalized to the initial signals. […] Fluorescence signals were excited with a fiber-coupled monochromator device (Polychrome V; Till Photonics) at 340, 358, and 380 nm and calibrated as described before.[29] […]

For `COC(=O)C12CN(Cc3ccccc3)CC1(C(=O)OC)CN(Cc1ccccc1)C2` (stereo not shown) [AV3-1], the “off-target effects on parental HEK cells” value was “no detectable off-target effects”.
